Source: ChEMBL document CHEMBL4411258, “Novel natural compounds from endophytic fungi with anticancer activity” (Eur J Med Chem, 2018)
Converted amounts (≈) assume the structure as drawn.

What was measured:
A549 [1] = test: Cytotoxicity against human A549 cells by MTS assay; type: functional, cell-based
NCI-H446 = test: Cytotoxicity against human NCI-H446 cells by MTS assay; type: functional, cell-based
HeLa = test: Cytotoxicity against human HeLa cells by MTS assay; type: functional, cell-based
Huh-7 = test: Cytotoxicity against human HuH7 cells by MTS assay; type: functional, cell-based
L02 = test: Cytotoxicity against human L02 cells by MTS assay; type: cell-based
[2] = Cytotoxicity against mouse LM3 cells by MTS assay; type: functional, cell-based
MCF7 [3] = test: Cytotoxicity against human MCF7 cells by MTS assay; type: functional, cell-based
SW1990 = test: Cytotoxicity against human SW1990 cells by MTS assay; type: functional, cell-based
SF-268 = test: Cytotoxicity against human SF268 cells after 48 hrs by sulforhodamine B assay; type: functional, cell-based
MCF7 [4] = test: Cytotoxicity against human MCF7 cells after 48 hrs by sulforhodamine B assay; type: functional, cell-based
NCI-H460 = test: Cytotoxicity against human NCI-H460 cells after 48 hrs by sulforhodamine B assay; type: functional, cell-based
HepG2 [5] = test: Cytotoxicity against human HepG2 cells after 48 hrs by sulforhodamine B assay; type: functional, cell-based
L5178Y = test: Cytotoxicity against mouse L5178Y cells by MTT assay; type: functional, cell-based
HepG2 [6] = test: Cytotoxicity against human HepG2 cells by MTT assay; type: functional, cell-based
MCF7 [7] = test: Cytotoxicity against human MCF7 cells by MTT assay; type: functional, cell-based
MCF7 [8] = test: Cytotoxicity against human MCF7 cells after 72 hrs by MTT assay; type: functional, cell-based; settings: MCF7, 72 h
[9] = Cytotoxicity against human KATO III cells after 72 hrs by MTT assay; type: functional, cell-based
A549 [10] = test: Cytotoxicity against human A549 cells by MTT assay; type: functional, cell-based
MCF7 [11] = test: Cytotoxicity against human MCF7 cells after 48 hrs by MTT assay; type: functional, cell-based; settings: Homo sapiens, MCF7, 48 h; read-out: IC50
NB-4 = test: Cytotoxicity against human NB4 cells after 48 hrs by MTT assay; type: functional, cell-based; settings: NB-4, 48 h
A549 [12] = test: Cytotoxicity against human A549 cells after 48 hrs by MTT assay; type: functional, cell-based; settings: Homo sapiens, A549, 48 h; read-out: IC50
SH-SY5Y [13] = test: Cytotoxicity against human SH-SY5Y cells after 48 hrs by MTT assay; type: functional, cell-based
PC-3 [14] = test: Cytotoxicity against human PC3 cells after 48 hrs by MTT assay; type: functional, cell-based; settings: PC-3, 48 h
HL-60 [15] = test: Cytotoxicity against human HL60 cells by trypan blue staining based assay; type: functional, cell-based
BT-549 = test: Cytotoxicity against human BT549 cells after 48 hrs by neutral red dye based assay; type: functional, cell-based; settings: BT-549, 48 h
SK-OV-3 = test: Cytotoxicity against human SKOV3 cells after 48 hrs by neutral red dye based assay; type: functional, cell-based; settings: SK-OV-3, 48 h
SH-SY5Y [16] = test: Cytotoxicity against human SH-SY5Y cells by MTT assay; type: functional, cell-based
PC-3 [17] = test: Cytotoxicity against human PC3 cells by MTT assay; type: functional, cell-based
NCI-H187 = test: Cytotoxicity against human NCI-H187 cells by resazurin microplate assay; type: functional, cell-based
Vero = test: Cytotoxicity against African green monkey Vero cells by resazurin microplate assay; type: cell-based; settings: Chlorocebus sabaeus
A549 [18] = test: Cytotoxicity against human A549 cells after 72 hrs by MTT assay; type: functional, cell-based; settings: A549, 72 h
Raji = test: Cytotoxicity against human Raji cells after 72 hrs by MTT assay; type: functional, cell-based
HepG2 [19] = test: Cytotoxicity against human HepG2 cells after 72 hrs by MTT assay; type: functional, cell-based; settings: HepG2, 72 h
HL-60 [20] = test: Cytotoxicity against human HL60 cells after 72 hrs by MTT assay; type: functional, cell-based; settings: HL-60, 72 h

O=C1CC[C@@H](c2ccc(O)c3c2C(=O)CC[C@H]3O)c2cccc(O)c21 showed an IC50 (A549 [1]) of 1 to 20 µM, an IC50 (NCI-H446) of 1 to 20 µM and an IC50 (HeLa) of 1 to 20 µM. It also gave an IC50 (Huh-7) of 1 to 20 µM, an IC50 (L02) of 1 to 20 µM and an IC50 [2] of 1 to 20 µM. It also gave an IC50 (MCF7 [3]) of 1 to 20 µM and an IC50 (SW1990) of 1 to 20 µM.
CC[C@H](C)c1[nH]c2c(c1C)C(=O)C1=C(C2=O)[C@@H](O)[C@@H]2[C@@]3(C)CC[C@H](C(C)(C)O)O[C@@H]3CC[C@@]2(C)O1 gave an IC50 (SF-268; Homo sapiens, SF-268, 48 h) of 6.4 to 42.6 µM, an IC50 (MCF7 [4]; Homo sapiens, MCF7, 48 h) of 6.4 to 42.6 µM and an IC50 (NCI-H460; Homo sapiens, NCI-H460, 48 h) of 6.4 to 42.6 µM. For the same molecule, the IC50 (HepG2 [5]; Homo sapiens, HepG2, 48 h) was 6.4 to 42.6 µM.
Molecule CC[C@H](C)C(=O)[C@@H](C)C1=CC(=O)C2=C(O[C@]3(C)CC[C@H]4O[C@@H](C(C)(C)O)CC[C@]4(C)C3=C2)C1=O has an IC50 (SF-268; Homo sapiens, SF-268, 48 h) of 6.4 to 42.6 µM, an IC50 (MCF7 [4]; Homo sapiens, MCF7, 48 h) of 6.4 to 42.6 µM and an IC50 (NCI-H460; Homo sapiens, NCI-H460, 48 h) of 6.4 to 42.6 µM. The IC50 (HepG2 [5]; Homo sapiens, HepG2, 48 h) was 6.4 to 42.6 µM.
Molecule CO[C@H]1CCC(=O)c2c([C@@H]3CCC(=O)c4c(O)cccc43)ccc(O)c21 has an IC50 (A549 [1]) of 1 to 20 µM, an IC50 (NCI-H446) of 1 to 20 µM and an IC50 (HeLa) of 1 to 20 µM. It also gave an IC50 (Huh-7) of 1 to 20 µM, an IC50 (L02) of 1 to 20 µM and an IC50 [2] of 1 to 20 µM. It also gave an IC50 (MCF7 [3]) of 1 to 20 µM and an IC50 (SW1990) of 1 to 20 µM.
With COc1cc(O)c2c(c1-c1c(OC)cc(O)c3c1C(=O)C1=C(C3=O)[C@H](O)[C@@H](OC(C)=O)[C@@](C)(O)[C@@H]1O)C(=O)C1=C(C2=O)[C@H](O)[C@@H](O)[C@@](C)(O)[C@@H]1O the IC50 (L5178Y) was 10.4 µM.
COc1cc(O)c2c(c1)C=C([C@H](O)[C@H](O)C(Cl)Cl)OC2O (stereo partly drawn) gave an IC50 (HepG2 [6]) of 39.6 µg/mL and an IC50 (MCF7 [7]) of 17.8 µg/mL.
In the case of COc1cc(O)c2c(=O)cc(C)oc2c1[C@@H]1C[C@@H](OC)C(=O)O1, the IC50 (MCF7 [8]) is reported as 19.3 µM and the IC50 [9] is reported as 23.3 µM.
With C[C@@H]1CC2=C(CO1)C(=O)[C@@](C)(O)[C@@H](O)C2 the IC50 (A549 [10]) was 41.9 µM and the IC50 (MCF7 [7]) was 2.5 µM.
In the case of COc1ccc2c(c1C/C=C(\C)CO)C=C(CO)OC2, the IC50 (MCF7 [11]) is reported as 2.8 to 8.8 µM, the IC50 (NB-4) is reported as 2.8 to 8.8 µM and the IC50 (A549 [12]) is reported as 2.8 to 8.8 µM. It also gave an IC50 (SH-SY5Y [13]) of 2.8 to 8.8 µM and an IC50 (PC-3 [14]) of 2.8 to 8.8 µM.
CC(C)=CCCC(C)(O)[C@H]1CC[C@@]2(C)OC3=C(C[C@@H]12)C(=O)[C@@H](O)CC3 (stereo partly drawn) gave an IC50 (HL-60 [15]) of 32.5 µM.
C[C@H]1[C@H](O)CCC(C)(C)[C@@]12CC=C(C(=O)O)CC2 showed an IC50 [9] of 35 µM.
Molecule Cc1cc2c(c3c1C(=O)Oc1c(C)c4c(c(O)c1O3)C(=O)OC4)CO2 has an IC50 (NCI-H446) of 63 µM.
COc1cc(O)c2c(c1)C(=O)[C@@H]1[C@H](C[C@@H](O)[C@@](C)(O)[C@@H]1O)C2=O gave an IC50 (L5178Y) of 3.4 µM.
CC(C)[C@@H]1CC[C@](C)(O)C2=C1C(=O)[C@](C)(O)C[C@@H]2O gave an IC50 (A549 [10]) of 0.2 µM and an IC50 (MCF7 [7]) of 5.9 µM.
In the case of O=C1CC[C@]2(C[C@@H](O)C(=O)O2)c2cccc(O)c21, the IC50 (HL-60 [15]) is reported as 29.1 µM.
C=C(CC[C@@H](C)[C@H]1CC=C2C3=C([C@@H](O)[C@H](OC(C)=O)[C@@]21C)[C@@]1(C)C[C@@H](O)[C@H](OC(C)=O)C(C)(C)[C@@H]1CC3)C(C)C showed an IC50 (BT-549) of 1.97 µg/mL (≈ 3.54 µM) and an IC50 (SK-OV-3) of 0.16 µg/mL (≈ 0.287 µM).
In the case of C/C1=C\C(=O)OC[C@]23CCC(C(=O)O)=C[C@H]2O[C@@H]2CC(OC(=O)/C=C\C=C\[C@H]([C@H](C)O)OCC1)[C@@]3(C)[C@]21CO1 (stereo partly drawn), the IC50 (SF-268; sf-268) is reported as 0.751 µM, the IC50 (MCF7 [4]; mcf7) is reported as 0.17 µM and the IC50 (NCI-H460; nci-h460) is reported as 0.36 µM. For the same molecule, the IC50 (HepG2 [5]; hepg2) was 0.38 µM.
COc1cc(O)c2c(c1)C(=O)C1=C(C2=O)[C@H](O)[C@@H](O)[C@@](C)(O)C1 gave an IC50 (L5178Y) of 9.4 µM.
In the case of COC(=O)[C@@H]1c2c(oc3cc(C)cc(OC)c3c2=O)C=C[C@H]1O, the IC50 (A549 [10]) is reported as 8.2 µM, the IC50 (SH-SY5Y [16]) is reported as 7.8 µM and the IC50 (PC-3 [17]) is reported as 6.9 µM. It also gave an IC50 (MCF7 [7]) of 8.4 µM.
In the case of C[C@@H]1CC[C@@H]2[C@H](C=C[C@H]3[C@H](/C=C/[C@H](C)O)OC(=O)[C@@]23C)C1, the IC50 (NCI-H187) is reported as 17.8 µg/mL (≈ 61.2 µM) and the IC50 (Vero) is reported as 31.5 µg/mL (≈ 108 µM).
In the case of CC(C)CCC[C@@H](C)[C@H]1CC[C@H]2[C@@H]3CC[C@H]4C[C@@H](O[C@@H]5O[C@H](CO)[C@@H](O)[C@H](O)[C@H]5O)CC[C@]4(C)[C@H]3CC[C@]12C, the IC50 (HepG2 [6]) is reported as 5.5 µM, the IC50 (PC-3 [17]) is reported as 6.1 µM and the IC50 (L02) is reported as 4.7 µM.
For CCC(=O)Cc1c(OC)cc(=O)oc1CO, the IC50 (A549 [18]) was 1 to 26.8 µg/mL (≈ 4.42 to 118 µM), the IC50 (Raji) was 1 to 26.8 µg/mL (≈ 4.42 to 118 µM) and the IC50 (HepG2 [19]) was 1 to 26.8 µg/mL (≈ 4.42 to 118 µM). For the same molecule, the IC50 (MCF7 [8]) was 1 to 26.8 µg/mL and the IC50 (HL-60 [20]) was 1 to 26.8 µg/mL (≈ 4.42 to 118 µM).
Molecule COc1ccc(CCCO)c2cc(CC(C)=O)oc(=O)c12 has an IC50 (MCF7 [11]) of 2.8 to 8.8 µM, an IC50 (NB-4) of 2.8 to 8.8 µM and an IC50 (A549 [12]) of 2.8 to 8.8 µM. The IC50 (SH-SY5Y [13]) was 2.8 to 8.8 µM and the IC50 (PC-3 [14]) was 2.8 to 8.8 µM.
Molecule CCC/C=C/[C@H]1C=CC(=O)[C@H](O)[C@H]1C(=O)C(C)O (stereo partly drawn) has an IC50 (SF-268; Homo sapiens, SF-268, 48 h) of 40.5 µM, an IC50 (MCF7 [4]; Homo sapiens, MCF7, 48 h) of 15.7 µM and an IC50 (NCI-H460; Homo sapiens, NCI-H460, 48 h) of 36.4 µM. The IC50 (HepG2 [5]; Homo sapiens, HepG2, 48 h) was 46.8 µM.
